The subject of one experiment is IL-4. The experiment is described as follows: Functional Th2-blocking activity: IL-4 expression in primary human Th2 cells (intracellular flow cytometry). The following applies: primary human CD4+ Th2 cells; for % Normalized Reduction of Cytokine Expression From Baseline in CD4+ T Cells IL-4: normalized against vehicle control (water), 3 days co-culture, PMA/ionomycin 6 hours; for Expression of Cytokine following Stimulation (% X Positive among CD4+ T cells) IL-4: 3 days co-culture with compound, PMA/ionomycin stimulation 6 hours. It counts as cell-based. The source says:
(§1) To produce T helper 2 (Th2) cells, peripheral blood mononuclear cells (PBMCs) were harvested from healthy donor leukopaks using Ficoll gradients. Naive CD4+ T cells were further isolated, then activated using TransAct or Dynabeads (depending on the donor). CD4+ T cells were activated for two days in the presence of low dose IL-2 (30 IU/mL) in X-VIVO-15 media containing 5% human AB serum (activation cycle). On the second day, the media was exchanged and supplemented with interleukin 4 (IL-4) (20 ng/mL), anti-IFN-gamma antibody (1 μg/mL), and interleukin 2 (IL-2) (rest cycle). The cells were cultured for an additional five days then evaluated for Prostaglandin D2 receptor 2 (DP2 or CRTH2) expression and IL-4 and interleukin 13 (IL-13) expression following phorbol myristate acetate (PMA)/ionomycin stimulation. If the expression of CRTH2 was >50%, the cells were frozen and used in Th2 IL-4/IL-13 bioactivity assays. If the expression of CRTH2 <50%, then the cells were restimulated using TransAct (or Dynabeads) and maintained on similar cycles of activation (2 days) and rest (5 days), until the expression of CRTH2 exceeded 50%. Typically, no more than 4 cycles are needed before the Th2 cells may be harvested and frozen.
(§2) For testing the ability of a compound or salt of the present disclosure to reduce the expression of IL-4 and IL-13 was tested in primary human Th2 cells, the abovementioned cells were thawed, then cultured for one day in IL-2 containing media. The Th2 cells were treated with compounds added at varying concentrations for three days, after which, the cells were washed, and stimulated with PMA/ionomycin for 6 hrs prior to readabout via intracellular flow cytometry.
(§3) The ability of a compound or salt of the present disclosure to reduce the expression of IL-4 and IL-13 was tested in primary human Th2 cells. Naive, primary human CD4+ T cells were isolated from healthy donors and differentiated into Th2 cells using a combination of IL-4 cytokine and anti-IFN-gamma antibody, based on a modified protocol from Scott et al (Activation of Th2 cells downregulates CRTh2 through an NFAT1 mediated mechanism. PLoS One. 2018 Jul. 3; 13(7):e0199156). Th2 cells were CRTH2+ and expressed IL-4 and IL-13 following PMA/ionomycin stimulation. Prior to PMA/ionomycin stimulation, Th2 cells were co-cultured with a compound or salt of the present disclosure for 3 days and then stimulated for 6 hours. Intracellular flow cytometry was performed to investigate the expression of IL-4 and IL-13 among stimulated CD4+ Th2 cells. The compound or salt was evaluated across a 2-log concentration range. Th2 cells were cultured in X-VIVO-15 media with human AB serum and supplemented with low dose IL-2 (30 IU/mL). The antibody panel that was used is listed below. All antibodies were obtained from Biolegend.
(§4) Description of Calculation for: (1) Expression of Cytokine following Stimulation (% X Positive among CD4+ T cells), and (2) % Normalized Reduction of Cytokine Expression From Baseline in CD4+ T Cells
(§5) The expression of IL-4 and IL-13 was measured based on positive gated fractions among CD4+ Th2 cells. The number is expressed as a positive percentage, determined based on the fluorescence-minus-one (FMO) control. The max percent is 100%. The normalized reduction value uses the vehicle control (water) to normalize against using the following percent change formula. (Cmpd: compound)
A general note: In flow cytometry, cells or beads pass a laser one at a time.

The next experiment concerns IL-13. Put plainly: Functional Th2-blocking activity: IL-13 expression in primary human Th2 cells (intracellular flow cytometry). The format is cell-based. The following applies: for Expression of Cytokine following Stimulation (% X Positive among CD4+ T cells) IL-13: 3 days co-culture with compound, PMA/ionomycin stimulation 6 hours; for % Normalized Reduction of Cytokine Expression From Baseline in CD4+ T Cells IL-13: normalized against vehicle control (water), 3 days co-culture, PMA/ionomycin 6 hours.
Description: as §1, §2, §3, §4, §5

On to `O=C(C1CCc2cn[nH]c2C1)N1C[C@H]2CCC[C@@]2(c2nc(-c3ccccc3)no2)C1` (stereo in doubt) [IV-1, 6-[(3aS,6aS)-3a-(3-phenyl-1,2,4-oxadiazol-5-yl)-octahydrocyclopenta[c]pyrrole-2-carbonyl]-4,5,6,7-tetrahydro-1H-indazole], for which, in the experiment with IL-4, the “% Normalized Reduction of Cytokine Expression From Baseline in CD4+ T Cells IL-4” value (shortened to “% Normalized Reduction … in CD4+ T Cells IL-4”) was “C (C represents 20% to less than 25%)” and the “Expression of Cytokine following Stimulation (% X Positive among CD4+ T cells) IL-4” value is given as “B (B represents 30% to less than 35%)”. In the experiment on IL-13, the “Expression of Cytokine following Stimulation (% X Positive among CD4+ T cells) IL-13” value is listed as “C (C represents 14% to less than 18%)” and the “% Normalized Reduction of Cytokine Expression From Baseline in CD4+ T Cells IL-13” value (“% Normalized Reduction … in CD4+ T Cells IL-13” for short) is “C (C represents 40% to less than 50%)”.
The like results for `O=C1CCC(N2Cc3c(OCC(=O)N4CCCC(c5ccccn5)C4)cccc3C2=O)C(=O)N1` (stereo not drawn) [Compound V-2, 3-(1-oxo-4-{2-oxo-2-[3-(pyridin-2-yl)piperidin-1-yl]ethoxy}-2,3-dihydro-1H-isoindol-2-yl)piperidine-2,6-dione] were, in that order, “D (D represents 25% or greater)”, “A (A represents 0% to less than 30%)”, “B (B represents 10% to less than 14%)” and “D (D represents 50% or greater)”.
In the case of `O=C(Nc1cccc(-c2ccc3nnc(-c4ccncc4)n3n2)c1)c1ccc(Cl)nc1` [III-2, 6-chloro-N-{3-[3-(pyridin-4-yl)-[1,2,4]triazolo[4,3-b]pyridazin-6-yl]phenyl}pyridine-3-carboxamide], in the experiment with IL-4, the “% Normalized Reduction … in CD4+ T Cells IL-4” value is recorded as “C (C represents 20% to less than 25%)” and the “Expression of Cytokine following Stimulation (% X Positive among CD4+ T cells) IL-4” value is given as “B (B represents 30% to less than 35%)”. Moreover, in the experiment on IL-13, the “Expression of Cytokine following Stimulation (% X Positive among CD4+ T cells) IL-13” value is reported as “C (C represents 14% to less than 18%)” and the “% Normalized Reduction … in CD4+ T Cells IL-13” value is reported as “C (C represents 40% to less than 50%)”.
`CCNC(=O)COc1cccc(NC(=O)c2sccc2-n2c(C)ccc2C)c1` [III-3, 3-(2,5-dimethyl-1H-pyrrol-1-yl)-N-{3-[(ethylcarbamoyl)methoxy]phenyl} thiophene-2-carboxamide]: in the experiment with IL-4, the “% Normalized Reduction … in CD4+ T Cells IL-4” value is “B (B represents 15% to less than 20%)” and the “Expression of Cytokine following Stimulation (% X Positive among CD4+ T cells) IL-4” value is on record as “B (B represents 30% to less than 35%)”. In the experiment with IL-13, the “Expression of Cytokine following Stimulation (% X Positive among CD4+ T cells) IL-13” value is on record as “B (B represents 10% to less than 14%)” and the “% Normalized Reduction … in CD4+ T Cells IL-13” value is reported as “D (D represents 50% or greater)”.
`Cc1cc(NC(=O)CC23CC4CC(CC(C4)C2)C3)cc(-c2nc3ncccc3o2)c1O` [III-4, 2-(1-adamantyl)-N-(4-hydroxy-3-methy1-5-[1,3]oxazolo[4,5-b]pyridin-2-ylphenyl)acetamide]: in the experiment on IL-4, the “% Normalized Reduction … in CD4+ T Cells IL-4” value is “C (C represents 20% to less than 25%)” and the “Expression of Cytokine following Stimulation (% X Positive among CD4+ T cells) IL-4” value is reported as “B (B represents 30% to less than 35%)”. In addition, in the experiment on IL-13, the “Expression of Cytokine following Stimulation (% X Positive among CD4+ T cells) IL-13” value is listed as “C (C represents 14% to less than 18%)” and the “% Normalized Reduction … in CD4+ T Cells IL-13” value is reported as “B (B represents 30% to less than 40%)”.
`O=C(Cc1c[nH]c2ccccc12)Nc1cccc(-c2ccc3nnc(-c4cccnc4)n3n2)c1` [III-5, 2-(1H-indol-3-yl)-N-{3-[3-(pyridin-3-yl)-[1,2,4]triazolo[4,3-b]pyridazin-6-yl]phenyl}acetamide]: in the experiment on IL-4, the “% Normalized Reduction … in CD4+ T Cells IL-4” value was “A (A represents 0% to less than 15%)” and the “Expression of Cytokine following Stimulation (% X Positive among CD4+ T cells) IL-4” value was “C (C represents 35% to less than 40%)”. In the experiment with IL-13, the “Expression of Cytokine following Stimulation (% X Positive among CD4+ T cells) IL-13” value is recorded as “B (B represents 10% to less than 14%)” and the “% Normalized Reduction … in CD4+ T Cells IL-13” value is “D (D represents 50% or greater)”.
The like results for `O=C(Cc1ncc(C(F)(F)F)cc1Cl)Nc1ccc(N2CCOCC2)cc1` [III-6, 2-[3-chloro-5-(trifluoromethyl)pyridin-2-yl]-N-[4-(morpholin-4-yl)phenyl]acetamide] were, in that order, “B (B represents 15% to less than 20%)”, “B (B represents 30% to less than 35%)”, “C (C represents 14% to less than 18%)” and “B (B represents 30% to less than 40%)”.
The like results for `O=C(Nc1cccc(NC(=O)c2ccc3[nH]c4c(c3c2)CCCC4)c1)c1ccccc1` [III-7, N-(3-benzamidophenyl)-2,3,4,9-tetrahydro-1H-carbazole-6-carboxamide] were, in that order, “D (D represents 25% or greater)”, “A (A represents 0% to less than 30%)”, “B (B represents 10% to less than 14%)” and “D (D represents 50% or greater)”.
The like results for `Cc1nnc(-c2cccc(-c3noc(-c4c[nH]c(=O)c5ccccc45)n3)c2)[nH]1` [IV-2, 4-{3-[3-(5-methyl-4H-1,2,4-triazol-3-yl)phenyl]-1,2,4-oxadiazol-5-yl}-1,2-dihydroisoquinolin-1-one] were, in that order, “D (D represents 25% or greater)”, “B (B represents 30% to less than 35%)”, “B (B represents 10% to less than 14%)” and “D (D represents 50% or greater)”.
Turning to `O=c1c2ccccc2c(-c2nc(-c3ccccc3Cl)no2)nn1-c1ccccc1` [IV-3, 4-[3-(2-chlorophenyl)-1,2,4-oxadiazol-5-yl]-2-phenyl-1,2-dihydrophthalazin-1-one], in the experiment on IL-4, the “% Normalized Reduction … in CD4+ T Cells IL-4” value is “C (C represents 20% to less than 25%)” and the “Expression of Cytokine following Stimulation (% X Positive among CD4+ T cells) IL-4” value is on record as “B (B represents 30% to less than 35%)”. For the same compound, in the experiment on IL-13, the “Expression of Cytokine following Stimulation (% X Positive among CD4+ T cells) IL-13” value is recorded as “C (C represents 14% to less than 18%)” and the “% Normalized Reduction … in CD4+ T Cells IL-13” value is reported as “B (B represents 30% to less than 40%)”.
For the compound `O=C(NC1CCN(C(=O)c2cn(-c3ccc(F)cc3)nn2)CC1)c1cc2ccccc2[nH]1` [VI-1, N-{1-[1-(4-fluorophenyl)-1H-1,2,3-triazole-4-carbonyl]piperidin-4-yl}-1H-indole-2-carboxamide], in the experiment with IL-4, the “% Normalized Reduction … in CD4+ T Cells IL-4” value is on record as “D (D represents 25% or greater)” and the “Expression of Cytokine following Stimulation (% X Positive among CD4+ T cells) IL-4” value is given as “B (B represents 30% to less than 35%)”. Besides, in the experiment on IL-13, the “Expression of Cytokine following Stimulation (% X Positive among CD4+ T cells) IL-13” value was “C (C represents 14% to less than 18%)” and the “% Normalized Reduction … in CD4+ T Cells IL-13” value is recorded as “B (B represents 30% to less than 40%)”.
The like results for `O=C(NCCn1ccc2ccccc21)NC1CC(=O)N(c2cccc(F)c2)C1` (stereo not drawn) [VI-2, 3-[1-(3-fluorophenyl)-5-oxopyrrolidin-3-y1]-1-[2-(1H-indol-1-yl)ethyl]urea] were, in that order, “D (D represents 25% or greater)”, “B (B represents 30% to less than 35%)”, “D (D represents 18% or greater)” and “A (A represents 0% to less than 30%)”.
